Where two headings read alike, the source gives them in different places.
Tests used:
Type in all cases: biochemical
Aβ42 [1] = molecular target: T1, Aβ42 (Homo sapiens, UniProt P05067); test: Dot blot assay with anti-oligomer (A11) and anti-fibril (OC) antibodies; details: flavonoid 200 μM, up to 24 h
T1 construct: purchased Peptide Institute, Inc. (Osaka, Japan)
Excerpt: Moreover, to investigate the effects of the flavonoids on the oligomerization and fibrilization of metal-free Aβ42 and metal–Aβ42, we performed the dot blot assay employing anti-oligomer (A11) and anti-fibril (OC) antibodies,[23] as illustrated in Fig. S12. ^† It should be noted that the thioflavin-T (ThT) assay utilized for monitoring the formation of β-sheet-rich aggregates cannot be carried out under our experimental conditions since the absorption windows of 4, 5, and 4b interfere with the excitation and emission wavelengths of ThT (Fig. S13 ^†). […]
Dot Blot Assay. The samples containing Ab42 (100 µM) with or without CuCl2 or ZnCl2 (100 µM) in the absence and presence of flavonoids (200 µM; 1% v/v DMSO) were prepared in 20 mM HEPES, pH 7.4, 150 mM NaCl and incubated for various time points (0, 1, 2, 3, 4, 6, 12, and 24 h). […] The membrane was incubated with a primary antibody [i.e., 6E1026 for Ab species (1:2,000), A1126 for Ab oligomers (1:1,000; Invitrogen, Carlsbad, CA, USA), or OC26 for Ab fibrils (1:2,000; Merch Millipore, Billerica, MA, USA)] in the solution of BSA (2% w/v in TBS-T) for 4 h at room temperature. […] A homemade ECL kit21–23 was used to visualize the results on a ChemiDoc MP Imaging System.
The intensity observed from A11- or OC-detectable Ab species was quantified, relative to that detected from 6E10, by the ImageJ software. […]

[2] = molecular target: T2, Electric eel acetylcholinesterase (eeAChE) (Electrophorus electricus, UniProt O42275); test: Fluorometric AChE activity assay
T2 construct: purchased Invitrogen (AChE assay kit)
Excerpt: Inhibiting the activity of AChE can maintain a proper level of ACh under dysregulated cholinergic conditions.[10,11] Thus, the inhibitory capability of flavonoids against AChE was investigated by a previously reported fluorescent AChE assay with slight modifications.[60] […] The inclusion of three hydroxyl groups on the A ring is critical for controlling the catalytic activity of AChE, as previously reported,[49] whereas the incorporation of a chloro substituent, with three hydroxyl groups, and methoxy moieties instead of hydroxyl groups on the A ring can decrease such inhibitory activity. Flavonoids 2, 3, and 1b over 1 illustrates the importance of the position of hydroxyl groups on the A ring and the isoflavone variation in directing the flavonoids' ability to inhibit the activity of AChE. […]
All experiments were performed in triplicate.
AChE Activity Assay. The AChE inhibitory activity of flavonoids was measured by a fluorometric AChE assay kit (Invitrogen) following the manufacturer ’s protocol with slight modifications.
Electric eel acetylcholinesterase (eeAChE) was dissolved and diluted with a working solution. The eeAChE solution (50 µL) was added into a 96-well plate. Various concentrations of flavonoids were then introduced into the 96-well plate. The final concentrations of flavonoids were as follow: […]
µM). After shaking, the mixture of eeAChE and flavonoids was pre-incubated for 15 min. A reaction mixture containing acetylcholine, an AChE probe, and AbRedTM was added into the 96-well plate to initiate the reaction. The AChE activity was calculated based on the fluorescence intensity (lex/lem = 571/585 nm) of the wells that was detected after 15 min incubation. Data were normalized to the control (no inhibitor). All experiments were performed in triplicate. […]
For the disaggregation studies, Ab (25 µM) was incubated with and without CuCl2 or ZnCl2 (25 µM) for 24 h at 37 °C with constant agitation to generate preformed Ab aggregates. The resultant Ab aggregates were then treated with flavonoids (50 µM) and incubated for additional 24 h with constant agitation. For the additional disaggregation experiments, preformed Ab42 aggregates (25 µM) or Ab42 seeds (10% v/v) with or without metal ions (25 µM for CuCl2 and ZnCl2) were incubated with flavonoids (50 µM) for 24 h with constant agitation. The resultant Ab aggregates were then treated with freshly prepared Ab42

Aβ42 [3] = molecular target: T1, Aβ42; test: Aβ42 aggregation inhibition experiments (gel/western blot, TEM); details: flavonoid 50 μM, 24 h
Description: To verify whether a series of nine flavonoids can modulate the aggregation of Aβ with and without metal ions, the molecular weight (MW) distribution and morphology of the resultant Aβ species were determined by gel electrophoresis with western blotting (gel/western blot) using an anti-Aβ antibody (6E10) and transmission electron microscopy (TEM), respectively. Two types of experiments were carried out employing two major Aβ isoforms, i.e., Aβ42 and Aβ40:[25] (i) inhibition studies to identify the effect of 1–5, 1a, 1b, 4a, and 4b on the formation of Aβ aggregates; (ii) disaggregation studies to evaluate if the flavonoids with reactivities towards Aβ aggregation in inhibition studies can disassemble preformed Aβ aggregates or modulate their further aggregation, as illustrated in Fig. 4 and S5–S9. ^† Moreover, the solutions containing the flavonoids and Cu(II) were probed by electronic absorption (Abs) spectroscopy to monitor their metal binding. […] As expected, no Abs change of 1a and 4a composed of methoxy groups on the A ring was detected by addition of Cu(II). […]
Ab Aggregation Experiments. Ab was dissolved in ammonium hydroxide [1% w/w NH4OH (aq)] and the resulting solution was aliquoted, lyophilized overnight, and stored at –80 °C. A stock solution of Ab was then prepared by dissolving the lyophilized peptide with NH4OH (1% w/w, aq; 10 µL) and diluting with ddH2O. All Ab samples were prepared following previously reported procedures.21,22 The concentration of the peptide solution was determined by measuring its […]
solution (20 mM HEPES, pH 7.4, 150 mM NaCl) was used for preparing Ab samples. For the inhibition studies, flavonoids (final concentration, 50 µM; 1% v/v DMSO) were added to the samples of Ab (25 µM) in the absence and presence of CuCl2 or ZnCl2 (25 µM) followed by incubation for 24 h at 37 °C with constant agitation. For the disaggregation studies, Ab (25 µM) was incubated with and without CuCl2 or ZnCl2 (25 µM) for 24 h at 37 °C with constant agitation to generate preformed Ab aggregates. The resultant Ab aggregates were then treated with flavonoids (50 µM) and incubated for additional 24 h with constant agitation. For the additional disaggregation experiments, preformed Ab42 aggregates (25 µM) or Ab42 seeds (10% v/v) with or without metal ions (25 µM for CuCl2 and ZnCl2) were incubated with flavonoids (50 µM) for 24 h with constant agitation. The resultant Ab aggregates were then treated with freshly prepared Ab42 […]
(25 µM) and incubated for additional 24 h with constant agitation.
Gel/Western Blot. The resultant Ab species from the aggregation experiments were analyzed by gel/Western blot using an anti-Ab antibody (6E10, Covance, Princeton, NJ, USA).21,22 Each sample (10 µL) was separated on a 10–20% tricine gel (Invitrogen). Following separation, the proteins were transferred onto nitrocellulose membranes and blocked with bovine serum albumin (BSA, 3% w/v; Sigma-Aldrich) in Tris-buffered saline (TBS) containing 0.1% v/v Tween-20 (Sigma-Aldrich) (TBS-T) for 4 h at room temperature or overnight at 4 °C. The membranes were incubated with 6E10 (1:2,000) in the solution of BSA (2% w/v in TBS-T) for 4 h at room temperature. […] A homemade ECL kit21–23 was used to visualize gel/Western blots on a ChemiDoc MP Imaging System (Bio-Rad).
TEM. Samples for TEM were prepared following previously reported methods.22,24 Glow-discharged grids (Formvar/Carbon 300-mesh; Electron Microscopy Sciences, Hatfield, PA, USA) were treated with Ab samples (25 µM; 7.5 µL) for 2 min at room temperature. Excess sample was removed using filter paper followed by washing with ddH2O (3x). Each grid incubated with uranyl […]

[4] = Cu(II)–Aβ42 or Zn(II)–Aβ42 100 μM
[5] = Zn(II)–Aβ42, Aβ 25 μM, Zn(II) 25 μM

T2 sequence (O42275 24-633): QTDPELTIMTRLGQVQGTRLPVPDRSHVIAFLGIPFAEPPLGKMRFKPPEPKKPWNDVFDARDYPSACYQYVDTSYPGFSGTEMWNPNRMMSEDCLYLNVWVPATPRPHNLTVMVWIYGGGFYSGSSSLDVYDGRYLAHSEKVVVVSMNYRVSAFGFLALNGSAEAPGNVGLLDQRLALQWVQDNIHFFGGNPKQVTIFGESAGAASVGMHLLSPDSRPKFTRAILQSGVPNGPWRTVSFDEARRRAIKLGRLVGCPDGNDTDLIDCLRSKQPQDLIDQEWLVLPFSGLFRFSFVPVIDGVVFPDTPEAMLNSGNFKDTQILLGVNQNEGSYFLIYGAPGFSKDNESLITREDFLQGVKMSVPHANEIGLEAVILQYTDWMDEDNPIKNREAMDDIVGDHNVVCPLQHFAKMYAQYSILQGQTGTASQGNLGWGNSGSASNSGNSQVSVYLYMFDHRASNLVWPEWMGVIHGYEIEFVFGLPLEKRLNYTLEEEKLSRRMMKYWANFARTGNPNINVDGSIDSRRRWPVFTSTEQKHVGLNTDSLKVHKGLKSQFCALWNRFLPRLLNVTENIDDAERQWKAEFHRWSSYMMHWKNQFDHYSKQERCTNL
T1 sequence (P05067 672-713 limits assumed): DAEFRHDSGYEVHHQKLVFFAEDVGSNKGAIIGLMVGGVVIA

Structure (SMILES)	A11- and OC-detectable signals (oligomers and fibrils) (Aβ42 [1]; [4])	A11- and OC-detectable signals (oligomers and fibrils) (Aβ42 [1]; metal-free Aβ42 100 μM)	inhibitory activity against AChE (IC50 could not be obtained) ([2]; fluorometric assay, eeAChE)	morphology of resultant aggregates (TEM) (Aβ42 [3]; Cu(II)–Aβ42)	MW distribution of resultant species (gel/western blot) (Aβ42 [3]; [5])	morphology of resultant aggregates (TEM) (Aβ42 [3]; Zn(II)–Aβ42)	MW distribution of resultant species (gel/western blot) (Aβ42 [3]; metal-free Aβ42 25 μM, 37 °C)	morphology of resultant aggregates (TEM) (Aβ42 [3]; metal-free Aβ42)	IC50 [2]	IC50 ([2]; fluorometric assay, eeAChE, read-out: IC50 for AChE inhibition)
COc1cc(OC)c2c(=O)cc(-c3ccccc3)oc2c1 [1a, 5,7-dimethoxyflavone]	not significantly varied	not significantly varied	negligible inhibitory activity	did not indicate any noticeable morphological changes	a significant change in the MW distribution was not indicated	did not indicate any noticeable morphological changes	could not change the size distribution	little or no morphological alteration	–	–
O=c1c(-c2ccccc2)coc2cc(O)cc(O)c12 [1b, 5,7-dihydroxyisoflavone]	not significantly varied	not significantly varied	–	did not indicate any noticeable morphological changes	a significant change in the MW distribution was not indicated	did not indicate any noticeable morphological changes	could not change the size distribution	little or no morphological alteration	11.8 µM	–
COc1cc2oc(-c3ccccc3)cc(=O)c2c(OC)c1OC [4a, 5,6,7-trimethoxyflavone]	not significantly varied	not significantly varied	–	did not indicate any noticeable morphological changes	a significant change in the MW distribution was not indicated	did not indicate any noticeable morphological changes	could not change the size distribution	little or no morphological alteration	–	52.5 µM
